Measured values from patent publication US20250144067A1, “PERSONALIZED STARVATION THERAPY FOR CANCER” (Faeth Therapeutics, Inc., priority 2021, published 2025).
Counter-ions that a name gives are not always drawn. Like-named read-outs stand apart in the source and are kept apart here.

Legend:
[1] = test system: NCI-H292 lung cancer cells; experiment: FDA drug screening, complete media vs cholesterol-free media without statin (TABLE 1); assay type: cell-based, human
[2] = test system: NCI-H292 lung cancer cells; experiment: FDA drug screening, complete media vs cholesterol-free media with simvastatin (TABLE 2); assay type: cell-based, human
[3] = NCI-H292 cells, cholesterol-free media without statin
[4] = complete vs cholesterol-free media, […]
[5] = NCI-H292 cells, FDA drug library screen, cholesterol-free media with simvastatin 0.04 μM
[6] = NCI-H292 cells, FDA drug library screen, complete media
[7] = complete media minus cholesterol-free media + simvastatin, […]
[8] = NCI-H292 cells, cholesterol-free media without statin, FDA drug library screen
[9] = NCI-H292 cells, complete media, FDA drug library screen
[10] = complete vs cholesterol-free media, >0 enhanced anti-cancer activity, about 0 neutral, <0 antagonist
[11] = NCI-H292 cells, cholesterol-free media with simvastatin 0.04 μM, cell growth value in FDA drug screen
[12] = NCI-H292 cells, complete media, cell growth value in FDA drug screen
[13] = complete media minus cholesterol-free media + simvastatin, >0 enhanced anti-cancer activity, about 0 neutral, <0 antagonist
[14] = Complete minus Cholesterol-free, greater than 0 enhanced anti-cancer activity, about 0 neutral, below 0 antagonists
[15] = NCI-H292 cells in cholesterol-free media without statin
[16] = NCI-H292 cells in complete media
[17] = NCI-H292 cells, cholesterol-free media with simvastatin 0.04 μM, FDA drug library screen (TABLE 2)
[18] = complete media minus cholesterol-free media + simvastatin (0.04 μM), >0 enhanced anti-cancer activity, about 0 neutral, <0 antagonist
[19] = complete vs cholesterol-free media, greater than 0 enhanced anti-cancer activity, about 0 neutral, below 0 antagonists
[20] = NCI-H292 cells, drug in cholesterol-free media with simvastatin 0.04 μM
[21] = NCI-H292 cells, drug in complete media
[22] = complete media vs cholesterol-free media + simvastatin (0.04 μM), >0 enhanced anti-cancer activity, about 0 neutral, <0 antagonist
[23] = Complete minus Cholesterol-free, […]
[24] = NCI-H292 cells, cholesterol-free media with simvastatin 0.04 μM, […]
[25] = NCI-H292 cells, complete media, […]
[26] = Complete minus Cholesterol-free, greater than 0 enhanced anti-cancer activity, about 0 neutral, below 0 antagonist
[27] = NCI-H292 cells, FDA drug library screen, cholesterol-free media without statin
[28] = NCI-H292 cells, complete media, FDA drug library screen (TABLE 2)
[29] = complete media vs cholesterol-free media + simvastatin (0.04 μM), […]
[30] = NCI-H292 cells, FDA library drug in cholesterol-free media with simvastatin 0.04 μM
[31] = NCI-H292 cells, FDA library drug in complete media
[32] = Complete minus Cholesterol-free, >0 enhanced anti-cancer activity, about 0 neutral, <0 antagonist

Clc1ccc2c(N3CCN(CCCN4CCN(c5ccnc6cc(Cl)ccc56)CC4)CC3)ccnc2c1
Cholesterol-free [1, 3]: 1.226
Complete ([1]; NCI-H292 cells, complete media): 0.8255
Difference [1, 4]: −0.40
Cholesterol-free media + simvastatin (0.04 μM) [2, 5]: 0.9008
Complete Media [2, 6]: 1.047
Difference [2, 7]: 0.15

C[C@@H](Oc1cc(-c2cnn(C3CCNCC3)c2)cnc1N)c1c(Cl)ccc(F)c1Cl [Crizotinib]
Cholesterol-free [1, 8]: 0.1411
Complete [1, 9]: 0.3735
Difference [1, 10]: 0.23
Cholesterol-free media + simvastatin (0.04 μM) [2, 11]: 0.4044
Complete Media [2, 12]: 0.5269
Difference [2, 13]: 0.12

Ibutilide (fumarate)
Difference [1, 14]: −1.13
Cholesterol-free [1, 15]: 1.969
Complete [1, 16]: 0.8391
Cholesterol-free media + simvastatin (0.04 μM) [2, 17]: 1.045
Difference [2, 18]: −0.02

C[C@]12CCC3=C4CCC(=O)C=C4CC[C@H]3[C@@H]1CC[C@@]2(O)CC#N [Dienogest]
Cholesterol-free [1, 3]: 1.387
Complete ([1]; NCI-H292 cells, complete media): 1.069
Difference [1, 19]: −0.32
Cholesterol-free media + simvastatin (0.04 μM) [2, 20]: 0.9182
Complete Media [2, 21]: 0.7086
Difference [2, 22]: −0.21

Cl.Cl.OCCOCCN1CCN(C(c2ccccc2)c2ccccc2)CC1 [Decloxizine (dihydrochloride)]
Difference [1, 23]: −0.22
Cholesterol-free [1, 3]: 1.186
Complete ([1]; NCI-H292 cells, complete media): 0.9687
Cholesterol-free media + simvastatin (0.04 μM) [2, 24]: 0.9553
Complete Media [2, 25]: 1.042
Difference [2, 7]: 0.09

O=C(O)CCCCC1CCSS1 (stereo not shown) [Lipoic acid]
Difference [1, 26]: −0.11
Cholesterol-free [1, 27]: 0.8613
Complete [1, 6]: 0.7528
Cholesterol-free media + simvastatin (0.04 μM) [2, 5]: 0.7443
Complete Media [2, 6]: 1.012
Difference [2, 13]: 0.27

N[C@H](C(=O)O)[C@H](O)c1ccc(O)c(O)c1 [Droxidopa]
Cholesterol-free [1, 8]: 0.9972
Complete [1, 9]: 1.24
Difference [1, 10]: 0.24
Cholesterol-free media + simvastatin (0.04 μM) [2, 20]: 1.236
Complete Media [2, 21]: 1.023
Difference [2, 22]: −0.21

NCc1ccc(C(=O)O)cc1 [4-(Aminomethyl)benzoic acid]
Difference [1, 14]: −0.68
Cholesterol-free [1, 15]: 1.961
Complete [1, 16]: 1.286
Cholesterol-free media + simvastatin (0.04 μM) [2, 17]: 1.68
Complete Media [2, 28]: 1.637
Difference [2, 18]: −0.04

CN(CCOc1ccc(CC2SC(=O)NC2=O)cc1)c1ccccn1.O=C(O)/C=C\C(=O)O (stereo not shown) [Rosiglitazone (maleate)]
Cholesterol-free [1, 8]: 1.107
Complete [1, 9]: 1.422
Difference [1, 10]: 0.32
Cholesterol-free media + simvastatin (0.04 μM) [2, 11]: 0.848
Complete Media [2, 12]: 0.8943
Difference [2, 13]: 0.05

CC1=C(C(=O)O)N2C(=O)[C@@H](NC(=O)[C@H](N)c3ccc(O)cc3)[C@H]2SC1 [Cefadroxil]
Cholesterol-free [1, 8]: 1.424
Complete [1, 9]: 1.685
Difference [1, 10]: 0.26
Cholesterol-free media + simvastatin (0.04 μM) [2, 5]: 1.041
Complete Media [2, 6]: 1.588
Difference [2, 13]: 0.55

Potassium guaiacolsulfonate (hemihydrate)
Cholesterol-free [1]: 1.74
Complete [1]: 0.9478
Difference [1]: −0.79
Cholesterol-free media + simvastatin (0.04 μM) [2]: 1.702
Complete Media [2]: 1.838
Difference [2]: 0.14

CC(=O)Oc1cc(C)c(OC(C)=O)c2ccccc12 [Vitamin K4]
Difference [1, 23]: −0.21
Cholesterol-free [1, 3]: 0.9817
Complete ([1]; NCI-H292 cells, complete media): 0.7726
Cholesterol-free media + simvastatin (0.04 μM) [2, 24]: 0.7559
Complete Media [2, 25]: 0.8779
Difference [2, 7]: 0.12

CNCCc1ccccn1 [Betahistine]
Difference [1, 26]: −0.10
Cholesterol-free [1, 27]: 1.192
Complete [1, 6]: 1.087
Cholesterol-free media + simvastatin (0.04 μM) [2, 20]: 1.266
Complete Media [2, 21]: 1.062
Difference [2, 22]: −0.20

NC(=O)N[C@@H](CCC(=O)O)C(=O)O [Carglumic Acid]
Difference [1, 26]: −0.10
Cholesterol-free [1, 27]: 1.036
Complete [1, 6]: 0.9389
Cholesterol-free media + simvastatin (0.04 μM) [2, 5]: 0.9383
Complete Media [2, 6]: 1.207
Difference [2, 13]: 0.27

CC[C@@]1(O)C(=O)OCc2c1cc1n(c2=O)Cc2cc3cc(O)ccc3nc2-1 [(S)-10-Hydroxycamptothecin]
Difference [1, 23]: 0.01
Cholesterol-free [1, 8]: 0.01962
Complete [1, 9]: 0.02742
Cholesterol-free media + simvastatin (0.04 μM) [2, 5]: 0.2337
Complete Media [2, 6]: 0.138
Difference [2, 29]: −0.10

Dabrafenib (Mesylate)
Cholesterol-free [1, 8]: 0.4044
Complete [1, 9]: 0.6337
Difference [1, 4]: 0.23
Cholesterol-free media + simvastatin (0.04 μM) [2, 5]: 0.4336
Complete Media [2, 6]: 0.6478
Difference [2, 7]: 0.21

Danofloxacin (mesylate)
Difference [1, 14]: −0.77
Cholesterol-free [1, 15]: 1.786
Complete [1, 16]: 1.013
Cholesterol-free media + simvastatin (0.04 μM) [2, 11]: 0.9788
Complete Media [2, 12]: 1.081
Difference [2, 13]: 0.10

C#Cc1cccc(Nc2ncnc3cc(OCCOC)c(OCCOC)cc23)c1 [Erlotinib]
Difference [1, 26]: −0.17
Cholesterol-free [1, 27]: 0.6096
Complete [1, 6]: 0.4429
Cholesterol-free media + simvastatin (0.04 μM) [2, 17]: 0.5219
Complete Media [2, 28]: 0.4599
Difference [2, 18]: −0.06

O=C1CCC[C@@H]2[C@H]3CCCN4CCC[C@H](CN12)[C@@H]34 [Sophoridine]
Cholesterol-free [1, 3]: 1.507
Complete ([1]; NCI-H292 cells, complete media): 1.042
Difference [1, 4]: −0.46
Cholesterol-free media + simvastatin (0.04 μM) [2, 30]: 1.337
Complete Media [2, 31]: 1.063
Difference [2, 29]: −0.27

Cc1ncc(CSSCc2cnc(C)c(O)c2CO)c(CO)c1O [Pyrithioxin (dihydrochloride)]
Cholesterol-free [1, 8]: 0.8349
Complete [1, 9]: 1.062
Difference [1, 10]: 0.23
Cholesterol-free media + simvastatin (0.04 μM) [2, 5]: 0.9622
Complete Media [2, 6]: 1.11
Difference [2, 13]: 0.15

CCCCC[C@H](O)/C=C/[C@@H]1[C@@H](C/C=C\CCCC(=O)O)[C@@H](O)C[C@H]1O.NC(CO)(CO)CO [Dinoprost (tromethamine salt)]
Cholesterol-free [1, 3]: 1.291
Complete ([1]; NCI-H292 cells, complete media): 0.9605
Difference [1, 19]: −0.33
Cholesterol-free media + simvastatin (0.04 μM) [2, 30]: 1.671
Complete Media [2, 31]: 1.083
Difference [2, 22]: −0.59

Estramustine (phosphate sodium)
Cholesterol-free [1]: 1.196
Complete [1]: 0.9487
Difference [1]: −0.25
Cholesterol-free media + simvastatin (0.04 μM) [2]: 1.251
Difference [2]: −0.18

COc1ccc2cc3[n+](cc2c1OC)CCc1cc2c(cc1-3)OCO2.[Cl-] [Berberine (chloride)]
Difference [1, 26]: −0.09
Cholesterol-free [1, 27]: 0.2752
Complete [1, 6]: 0.1873
Cholesterol-free media + simvastatin (0.04 μM) [2, 11]: 0.3544
Complete Media [2, 12]: 0.3946
Difference [2, 13]: 0.04

CNC(=O)c1cnn(-c2nc(N)c3ncn([C@@H]4O[C@H](CO)[C@@H](O)[C@H]4O)c3n2)c1 [Regadenoson]
Difference [1, 23]: −0.21
Cholesterol-free [1, 3]: 1.426
Complete ([1]; NCI-H292 cells, complete media): 1.216
Cholesterol-free media + simvastatin (0.04 μM) [2, 30]: 1.362
Complete Media [2, 31]: 1.055
Difference [2, 29]: −0.31

O=NN(CCCl)C(=O)NC1CCCCC1 [Lomustine]
Difference [1, 23]: −0.14
Cholesterol-free [1, 27]: 1.107
Complete [1, 6]: 0.965
Cholesterol-free media + simvastatin (0.04 μM) [2, 17]: 0.7579
Complete Media [2, 28]: 0.7602
Difference ([2]; complete media minus cholesterol-free media + simvastatin (0.04 μM), […]): 0.00

CO/N=C(\C(=O)N[C@@H]1C(=O)N2C(C(=O)[O-])=C(CSc3nc(C)c(CC(=O)[O-])s3)CS[C@H]12)c1csc(N)n1.[Na+].[Na+] [Cefodizime (sodium)]
Difference [1, 32]: 0.06
Cholesterol-free [1, 8]: 1.009
Complete [1, 9]: 1.069
Cholesterol-free media + simvastatin (0.04 μM) [2, 20]: 1.29
Complete Media [2, 21]: 1.088
Difference [2, 22]: −0.20

CCN(CC)CCOC(=O)C(c1ccccc1)c1ccccc1 [Adiphenine (hydrochloride)]
Difference [1, 32]: −0.20
Cholesterol-free [1, 3]: 1.088
Complete ([1]; NCI-H292 cells, complete media): 0.8864
Cholesterol-free media + simvastatin (0.04 μM) [2, 30]: 1.255
Complete Media [2, 31]: 0.9527
Difference [2, 22]: −0.30

CN(C)c1ccc2nc3ccc(=[N+](C)C)cc-3sc2c1 [Methylene blue (trihydrate)]
Difference [1, 26]: −0.18
Cholesterol-free [1, 27]: 0.4339
Complete [1, 6]: 0.2574
Cholesterol-free media + simvastatin (0.04 μM) [2, 11]: 0.3366
Complete Media [2, 12]: 0.39
Difference [2, 13]: 0.05

COc1cccc(CCc2ccccc2OCC(CN(C)C)OC(=O)CCC(=O)O)c1 (stereo not shown) [Sarpogrelate (hydrochloride)]
Cholesterol-free [1, 3]: 1.015
Complete ([1]; NCI-H292 cells, complete media): 0.6472
Difference [1, 19]: −0.37
Cholesterol-free media + simvastatin (0.04 μM) [2, 30]: 1.378
Complete Media [2, 31]: 1.089
Difference [2, 22]: −0.29
